Here are results for 19 sequences from patent US7906620B2, “Tumor associated antigen, peptides thereof, and use of same as anti-tumor vaccines” (Yeda Research and Development Co. Ltd., priority 2002, dated 2011).

This assay deals with peptide loaded on labeled RMA-S/HHD. The experiment in a line: Immunogenicity of peptides in HHD mice: vaccination with peptide-loaded RMA-S/HHD/B7.1, cytolytic assay on peptide-loaded targets. To be noted: for Score: immunogenic score: ratio of specific lysis, specific peptide vs tyrosinase peptide loaded on RMA-S/HHD, average of two experiments, positive above 125%; for antigenic / immunogenic in HHD mice: mouse, in vivo. Type of assay: in vivo. On the procedure:
FIG. 4 is a graph of the results of in vitro cytolytic assays. Seven peptides are immunogenic. Peptides were loaded on RMA-S/HHD/B7.1, washed and irradiated. HHD mice were immunized three times as described in the materials and methods section in Example 1. In vitro cytolytic assays were performed on the relevant peptide as target and on an irrelevant peptide. The score was deduced from the ratio of the specific lysis that were obtained. The positive peptides (above 125%) are marked by arrows. Peptides 1-6, 3-5 and 3-7 are derived from “Human 1-8D gene”.
Vaccination. HHD mice were immunized i.p. 3 times at 7-day intervals with 2×10^6 irradiated (5000 rad) tumor cells, or irradiated peptide-loaded RMA-S/HHD/B7.1 transfectants. Spleens were removed on day 10 after the last immunization, and splenocytes were restimulated in vitro, either with irradiated tumor cells or with one third of the lymphocytes pre-pulsed with 100 μM synthetic peptides in opti-MEM (Life Technologies) for 2 hr at 37° C., 5% CO2. Restimulated lymphocytes were cultured in RPMI-HEPES medium containing 10% FCS, 2 mM glutamine, combined antibiotics, 1 mM sodium pyruvate, 25 mM HEPES, 5×10^−5M PME and 1% NEAA for 5 days. Viable cells (effectors) were separated by Lympholyte-M (Cedarlane, Hornby, Canada) gradient, resuspended and admixed at different ratios with 5,000 ^35S-methionine-labeled target cells. Cytolytic assays were carried out as described previously in Carmon et al., 2000. Extracts of tumor peptides or normal colon peptides were prepared from a pool of 6 post-surgical colon carcinoma specimens as described before Carmon et al., 2000.
The antigenic peptides were tested for their specific immunogenicity in HHD mice. HHD mice were vaccinated with RMA-S/HHD/B7.1 cells loaded with each of the peptides (listed in Table 3), their spleens were removed, and resensitized in vitro with synthetic peptides for four days. On the fifth day, a cytolytic assay was performed on two targets, either the peptide itself loaded on labeled RMA-S/HHD or the tyrosinase peptide as a negative control. The ratio of specific lysis between specific and tyrosinase peptides was defined as “immunogenic score”. This experiment was repeated twice and the average score of each of the antigenic peptides is specified (Table 3 and FIG. 4). The horizontal line in FIG. 4 represents the limit of 95% significance as defined by assuming normal distribution of scores.

“ALRGHSHFV (listed as Homo sapiens) [Peptide 1-8, Human MHC protein homologous to chicken B complex 58-66]”: the Score was determined as 106.7.

Consider “IQQYGHQEV (listed as Homo sapiens) [Peptide 1-7]”, for which the Score is listed as 94.6.

As to “IVDDITYNV (listed as Homo sapiens) [Peptide 1-11]”, the Score came to 126.8; the “antigenic / immunogenic in HHD mice” value was “antigenic and immunogenic”.

Take “DLQETLVKI (listed as Homo sapiens) [Peptide 3-6, Human chaperonin like protein 316-324]”: the Score worked out at 84.6.

With “ALGFYPAEI (listed as Homo sapiens) [Peptide 3-3]”, the Score came out at 93.6.

Regarding “VLYDELKKV (listed as Homo sapiens) [Peptide 1-1, Human ADP/ATP translocase 253-261]”, the Score is given as 121.7.

With “WVVYGVFSI (listed as Homo sapiens) [Peptide 3-4, Human TB2 gene 98-106]”, the Score came to 90.9.

As to “VQPQSPVAV (listed as Homo sapiens) [Peptide 1-3]”, the Score came to 112.0.

With “KIEDNNTLV (listed as Homo sapiens) [Peptide 2-3, Human ribosomal protein L23a mRNA 89-97]”, the Score turned out to be 150.0; the “antigenic / immunogenic in HHD mice” value is “antigenic and immunogenic”.

As to “LLVIIPVLV (listed as Homo sapiens) [Peptide 1-2, Human 1-8D gene from interferon inducible gene 119-127]”, the Score came out at 108.3.

Take “IPMGKSMLV (listed as Homo sapiens) [Peptide 2-2, Insulin like growth factor II 3-11]”: the Score is reported as 9.5.

“FELAAESDV (listed as Homo sapiens) [Peptide 1-4, Transforming growth factor beta induced gene 380-338]”: the Score came out at 83.3.

Turning to “GQQSTVSDV (listed as Homo sapiens) [Peptide 1-5]”, the Score is recorded as 125.0.

As for “ALPDETEVV (listed as Homo sapiens) [Peptide 2-1, Human osteonectin 23-31]”, the Score was found to be 115.0.

Consider “TLQLSRAPV (listed as Homo sapiens) [Peptide 1-12, Human mRNA for dipeptidase 223-231]”, for which the Score is recorded as 107.9.

Take “SIAEFFSDI (listed as Homo sapiens) [Peptide 3-2, Human TB2 gene 105-113]”: the Score is recorded as 143.2; the “antigenic / immunogenic in HHD mice” value is “antigenic and immunogenic”.

Regarding “TILTAVLLV (listed as Homo sapiens) [Peptide 1-10, Human defensin 6 5-13]”, the Score is recorded as 97.5.

Consider “MLTINGKAI (listed as Homo sapiens) [Peptide 3-1, Transforming growth factor beta induced gene 343-351]”, for which the Score was 147.1; the “antigenic / immunogenic in HHD mice” value was “antigenic and immunogenic”.

On to “VIATNILLV (listed as Homo sapiens) [Peptide 1-9, Human chaperonin-like protein 368-346]”, for which the Score worked out at 69.7.
